Data reported in US20110166223A1, “METHODS OF INHIBITING FGFR3 SIGNALING” (CEDARS-SINAI MEDICAL CENTER, priority 2008, published 2011).
Read-outs that look alike come from different tables or passages of the source.

How the values were obtained:
[1] = target: T1, recombinant tyrosine kinase (TK) domain of FGFR3 (Homo sapiens, UniProt P22607); test: Cell-free FGFR3 kinase assay with STAT1 as substrate; assay type: biochemical; conditions: for effect on FGFR3 kinase activity (in words): added directly to the kinase reaction, FIG. 4
T1 construct: recombinant tyrosine kinase (TK) domain of FGFR3 (Glu-322-Thr-806; Cell Signaling); purchased Cell Signaling
T1 sequence (P22607 322-806): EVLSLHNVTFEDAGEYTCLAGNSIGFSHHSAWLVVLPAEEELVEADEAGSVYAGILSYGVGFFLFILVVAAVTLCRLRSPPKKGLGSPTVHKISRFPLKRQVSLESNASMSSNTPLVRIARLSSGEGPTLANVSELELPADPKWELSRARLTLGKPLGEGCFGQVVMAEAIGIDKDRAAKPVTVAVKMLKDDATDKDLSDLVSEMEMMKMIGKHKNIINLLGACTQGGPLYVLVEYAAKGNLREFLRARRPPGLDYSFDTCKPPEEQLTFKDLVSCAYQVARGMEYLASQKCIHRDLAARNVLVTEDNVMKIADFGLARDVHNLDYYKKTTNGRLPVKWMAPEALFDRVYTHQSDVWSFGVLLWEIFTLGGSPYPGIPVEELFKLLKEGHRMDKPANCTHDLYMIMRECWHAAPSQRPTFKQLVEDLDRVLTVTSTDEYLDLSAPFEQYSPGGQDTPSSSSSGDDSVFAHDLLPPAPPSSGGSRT
Procedure: FIG. 4, in accordance with an embodiment herein, depicts 4,4′,4″,4′″-[carbonyl-bis[imino-5,1,3-benzenetriyl bis-{carbonylimino}]]tetrakis-{benzene-1,3-disulfonic acid} inhibits FGFR3 activity in a kinase assay. (a, b) Cell-free kinase assays were carried out as described herein, with recombinant tyrosine kinase (TK) domain of FGFR3 as a kinase, recombinant STAT1 as a substrate, and NF449 added directly to the kinase reaction. FGFR3-mediated phosphorylation of STAT1 was detected by WB with P-STAT1 (Y^701) antibody. The membrane was reprobed with FGFR3 and STAT1 antibodies to control for kinase and substrate quantity. The sample with ATP omitted serves as a negative control for the kinase reaction. Note the FGFR3-mediated phosphorylation of STAT1 is inhibited by 4,4′,4″,4′″-[carbonyl-bis[imino-5,1,3-benzenetriyl bis-{carbonylimino}]]tetrakis-{benzene-1,3-disulfonic acid}. The P-STAT1 and STAT1 signal was quantified by densitometry and expressed as a ratio between P-STAT1 and STAT1 signal for each given sample (b, lower graph). (c) The FGFR3 kinase assay was carried-out as described in (a) with 4,4′,4″,4′″-[carbonyl-bis[imino-5,1,3-benzenetriyl bis-{carbonylimino}]]tetrakis-{benzene-1,3-disulfonic acid}, 8,8′-[carbonylbis[imino-3,1-phenylenecarbonylimino{4-methyl-3,1-phenylene}carbonylimino]]bis-1,3,5-naphthalenetrisulfonic acid or 8,8′-[carbonylbis[imino-3,1-phenylene]]bis-{1,3,5-naphthalenetrisulfonic acid} added to the kinase reaction. Note the differential effects of 8,8′-[carbonylbis[imino-3,1-phenylenecarbonylimino{4-methyl-3,1-phenylene}carbonylimino]]bis-1,3,5-naphthalenetrisulfonic acid and 8,8′-[carbonylbis[imino-3,1-phenylene]]Bis-{1,3,5-naphthalenetrisulfonic acid} on the FGFR3-mediated phosphorylation of STAT1, which corresponds to their activity in the RCS growth-arrest experiment (lower graph). Data are an average from four wells with the indicated standard deviation. Statistically significant rescue of the growth arrest is indicated (Student's I-test; *-p<0.01).
OPM2 and KMS11 cells were lysed in ice-cold immunoprecipitation buffer (50 mM Tris-HCl pH 7.4, 150 mM NaCl, 0.5% NP-40, 1 mM EDTA, 25 mM NaF) supplemented with proteinase inhibitors and 10 mM sodium orthovanadate. Protein samples were resolved by SDS-PAGE and transferred onto a PVDF membrane. The following antibodies were used: Erk1/2, P-Erk1/2^T202/Y204, STAT1, P-STAT1^Y701 (Cell Signaling, Beverly, Mass.) and FGFR3 (Santa Cruz Biotechnology, Santa Cruz, Calif.). Western blotting signal was quantified by determining the integrated optical density (I.O.D.) of a given band using Scion Image software (Scion Corporation, Frederick, Mass.). Immunoprecipitations and FGFR3 kinase assays were performed as described. Briefly, the pRK7 vector encoding C-terminally FLAG-tagged K650E-FGFR3 was transfected into CHO cells using FuGENE6 reagent according to the manufacturer's protocol (Roche Applied Science, Indianapolis, Ind.). 48 hours after transfection, cells were treated with 20 ng/ml of FGF2 for 15 minutes and K650E-FGFR3 was immunoprecipitated from 800 μg of cell lysate protein using 4 μg of anti-FLAG antibody (Sigma-Aldrich, St. Louis, Mo.). Cells transfected with a plasmid encoding green fluorescent protein (pCCEY) serve as a negative control for the immunoprecipitation. Immunocomplexes were washed two times with kinase buffer (60 mM HEPES-NaOH pH 7.5, 3 mM MgCl2, 3 mM MnCl2, 3 μM Na3VO4, 1.2 mM dithiothreitol), and the kinase reactions were performed for 30 minutes at 30° C. in the presence of 2.5 μg of polyethylene glycol, 10 μM ATP, 300 ng of recombinant STAT1 (Active Motif, Carlsbad, Calif.) as a substrate, and NF449 added directly to the kinase reaction. Kinase assays utilizing recombinant tyrosine kinase (TK) domain of FGFR3 (Glu-322-Thr-806; Cell Signaling) were carried-out similarly, with 300 ng of kinase used in 50 μl reaction, and suramin, NF449 and NF023 added directly to the kinase reaction. […]

[2] = Water solubility (statement); assay type: physicochemical
[3] = system: FGF2/FGFR3-mediated growth-arrest of rat chondrosarcoma (RCS) cells; conditions: for effect on FGF2/FGFR3-mediated growth arrest (in words): FIGS. 1, 4c
Description: In this assay, the FGF2/FGFR3-mediated growth-arrest of rat chondrosarcoma (RCS) cells is used as a reporter, thus allowing for elimination of toxic compounds as false-positive hits (Krejci, et al., Invest New Drugs 2007, 25: 391-395).
Rat chondrosarcoma chondrocytes (RCS), chinese hamster ovary (CHO) cells and MM cell lines OPM2 and KMS11 were propagated in DMEM, Opti-MEM or RPMI media (Gibco, Gaitherbsburg, Md.), supplemented with 10% fetal bovine serum (Atlanta Biological, Nordeross, Ga.) and antibiotics. […] For the RCS growth-arrest experiments shown at FIGS. 1 and 4c, 1×10^4 RCS chondrocytes were seeded in 24-well tissue culture plates (Costar, Cambridge, Mass.), treated as indicated for 72 hours, and counted. FGF2 was obtained from R&D Systems (Minneapolis, Minn.); C-natriuretic peptide, suramin, NF023 and NF449 were from Calbiochem (San Diego, Calif.).

O=C(Nc1cc(C(=O)Nc2ccc(S(=O)(=O)O)cc2S(=O)(=O)O)cc(C(=O)Nc2ccc(S(=O)(=O)O)cc2S(=O)(=O)O)c1)Nc1cc(C(=O)Nc2ccc(S(=O)(=O)O)cc2S(=O)(=O)O)cc(C(=O)Nc2ccc(S(=O)(=O)O)cc2S(=O)(=O)O)c1 [NF449, 4,4′,4″,4′″-[carbonyl-bis[imino-5,1,3-benzenetriylbis-{carbonylimino}]]tetrakis-{benzene-1,3-disulfonic acid}]
inhibition of FGFR3 kinase activity ([1]; 0.1-30 μM range, FIG. 4b): some inhibition of FGFR3 kinase activity at all concentrations | FGFR3-mediated tyrosine phosphorylation of STAT1 ([1]; 5-30 μM NF449 concentration range, FIG. 4a): inhibited at all concentrations | concentration necessary to achieve more than 50% inhibition of FGFR3 kinase activity ([1]; FIG. 4b, densitometry P-STAT1/STAT1): ≥ 2 µM | effect on FGFR3 kinase activity (in words) [1]: inhibited the FGFR3-mediated tyrosine phosphorylation of STAT1 | effect on FGFR3 kinase activity (in words) ([1]; listed as 4,4′,4″,4′″-[carbonyl-bis[imino-5,1,3-benzenetriyl bis-{carbonylimino}]]tetrakis): inhibited | concentration range inhibiting FGFR3 kinase activity ([1]; comparison with SU5402): 2 to 20 µM | water solubility [2]: water-soluble | rescue (reversal) of the growth-arrest phenotype ([3]; 25 μM NF449, detailed cell-growth experiments, FIG. 1a, 72 hours): ~70% | active concentration range in the RCS growth-arrest assay ([3]; FGF2 5 ng/ml, 72 hours, FIG. 1a): 8 to 30 µM | rescue of the FGF2-mediated RCS growth-arrest ([3]; FIG. 1b, each agent alone, 72 hours): ~50% | effect on FGF2/FGFR3-mediated growth arrest (in words) ([3]; RCS chondrocytes): more potently that CNP | effect on FGF2/FGFR3-mediated growth arrest (in words) ([3]; RCS chondrocytes, listed as 4,4′,4″,4′″-[carbonyl-bis[imino-5,1,3-benzenetriyl bis-{carbonylimino}]]tetrakis): reversal of this phenotype | cell toxicity ([3]; RCS chondrocytes, throughout active concentration range (8-30 μM), listed as 4,4′,4″,4′″-[carbonyl-bis[imino-5,1,3-benzenetriyl bis-{carbonylimino}]]tetrakis): lack of significant | concentration range inhibiting RCS growth arrest ([3]; comparison with SU5402): 2 to 20 µM
